From DBAASP
Converted amounts (≈) assume the structure as drawn. “And” between values parts separate entries of the source, which are not always exact repeats. Equal values may be shown once.

What was measured:
Assay in all cases: ≥ marks a high value that may be exact or a test limit, other limits are often not marked, values filed in µg/mL are converted to µM
[1] = test system: Bacillus subtilis
[2] = test system: Escherichia coli ATCC 25922
[3] = test system: Staphylococcus aureus ATCC 2592
[4] = test system: Candida albicans ATCC 2002
[5] = test system: Staphylococcus aureus MR
[6] = test system: Staphylococcus aureus ATCC 25923
[7] = test system: Candida albicans ATCC 90028
[8] = test system: Acinetobacter baumannii ATCC 19606
[9] = test system: Pseudomonas aeruginosa ATCC 27853
[10] = test system: Acinetobacter baumannii
[11] = test system: Staphylococcus aureus ATCC 29213
[12] = test system: Enterococcus faecalis ATCC 29212
[13] = test system: Staphylococcus epidermidis ATCC 12228
[14] = test system: Escherichia coli UB1005
[15] = test system: Salmonella enterica subsp. enterica serovar Typhimurium C77-31
[16] = test system: Staphylococcus aureus ATCC 33591
[17] = test system: Escherichia coli JW0013

`CC[C@H](C)[C@H](NC(=O)CNC(=O)[C@H](CO)NC(=O)[C@H](CCCN=C(N)N)NC(=O)[C@@H](N)Cc1ccccc1)C(=O)N[C@@H](CC(C)C)C(=O)N[C@@H](CCCCN)C(=O)N[C@@H](CC(C)C)C(=O)N[C@@H](C)C(=O)N[C@@H](CO)C(=O)N[C@@H](CCCCN)C(=O)N[C@H](C(=O)N1CCC[C@H]1C(=O)N[C@@H](CO)C(=O)N[C@H](C(=O)N[C@@H](CC(C)C)C(=O)N[C@H]1CSSC[C@@H](C(=O)O)NC(=O)[C@H](CC(N)=O)NC(=O)[C@H](CCCCN)NC(=O)[C@H](CC(C)C)NC(=O)[C@H](C(C)C)NC(=O)[C@H](C)NC1=O)C(C)C)[C@@H](C)CC` [FRSGILKLASKIPSVLCAVLKNC] gave an MIC [1] of 20.3 µM (≈ 50 µg/mL), an MIC [2] of 20.3 µM (≈ 50 µg/mL) and an MIC [3] of 5.08 µM (≈ 12.5 µg/mL). The MIC [4] was 10.2 µM (≈ 25 µg/mL).

In the case of `CC[C@H](C)[C@H](NC(=O)[C@H](CCCN=C(N)N)NC(=O)[C@H](CCCCN)NC(=O)[C@@H](NC(=O)[C@@H](NC(=O)[C@H](CCCN=C(N)N)NC(=O)[C@@H](N)CCCCN)[C@@H](C)CC)C(C)C)C(=O)N[C@@H](CCCCN)C(=O)N[C@@H](CCCCN)C(=O)N[C@@H](Cc1ccccc1)C(=O)N[C@@H](CC(C)C)C(=O)N[C@@H](CCCN=C(N)N)C(=O)O` [KRIVKRIKKFLR], the MIC [5] is reported as no less than 202 µM, the MIC [6] is reported as no less than 202 µM and the MIC [7] is reported as 2.5 µM (≈ 3.96 µg/mL). It also gave an MIC [2] of 1.25 µM (≈ 1.98 µg/mL), an MIC [8] of no less than 101 µM and an MIC [9] of 1.25 µM (≈ 1.98 µg/mL). It also gave an MIC [10] of no less than 202 µM and an MIC [11] of 2.5 µM (≈ 3.96 µg/mL).

`CC[C@H](C)[C@@H]1NC(=O)[C@H](CO)NC(=O)[C@H](CCCCN)NC(=O)[C@H]([C@@H](C)O)NC(=O)[C@H](Cc2c[nH]c3ccccc23)NC(=O)[C@@H](NC(=O)CNC(=O)[C@H](CCCCN)NC(=O)[C@@H](N)CC(C)C)CSSC[C@@H](C(=O)N[C@@H](Cc2ccccc2)C(=O)O)NC(=O)[C@@H]2CCCN2C(=O)[C@H](CCCCN)NC(=O)[C@@H]2CCCN2C(=O)[C@@H]2CCCN2C1=O` [LKGCWTKSIPPKPCF] showed an MIC [1] of 1.37 µM (≈ 2.34 µg/mL), an MIC [2] of 1.37 µM (≈ 2.34 µg/mL) and an MIC [3] of 1.03 µM (≈ 1.76 µg/mL). For the same compound, the MIC [4] was 2.75 µM (≈ 4.68 µg/mL).

`CC[C@H](C)[C@H](NC(=O)[C@H](CCCCN)NC(=O)[C@H](CCCCN)NC(=O)[C@H](CC(C)C)NC(=O)[C@H](CCCN=C(N)N)NC(=O)[C@@H](NC(=O)[C@H](CCCN=C(N)N)NC(=O)[C@@H](NC(=O)[C@H](CCCCN)NC(=O)[C@@H](NC(=O)[C@H](CCCN=C(N)N)NC(=O)[C@H](CC(C)C)NC(=O)[C@H](CCCN=C(N)N)NC(=O)[C@H](CCCN=C(N)N)NC(=O)[C@H](Cc1ccccc1)NC(=O)[C@@H](N)CCCN=C(N)N)[C@@H](C)CC)[C@@H](C)O)[C@@H](C)CC)C(N)=O` [RFRRLRIKTRIRLKKI] was tested, and the MIC [12] was 16 µM (≈ 34.4 µg/mL), the MIC [13] was 16 µM (≈ 34.4 µg/mL) and the MIC [2] was 8 µM and > 4 µM. For the same compound, the MIC [14] was 16 µM (≈ 34.4 µg/mL), the MIC [15] was 16 µM (≈ 34.4 µg/mL) and the MIC [11] was 64 µM and > 32 µM.

In the case of `CC[C@H](C)[C@H](NC(=O)[C@H](CCCCN)NC(=O)[C@H](Cc1c[nH]c2ccccc12)NC(=O)[C@H](CC(C)C)NC(=O)[C@H](CCCN=C(N)N)NC(=O)[C@H](CCCCN)NC(=O)[C@H](CCCN=C(N)N)NC(=O)[C@@H](NC(=O)[C@H](CCCCN)NC(=O)[C@H](Cc1c[nH]c2ccccc12)NC(=O)[C@H](CCCN=C(N)N)NC(=O)[C@H](CC(C)C)NC(=O)[C@H](CCCN=C(N)N)NC(=O)[C@H](CCCN=C(N)N)NC(=O)[C@H](Cc1ccccc1)NC(=O)[C@@H](N)CCCN=C(N)N)[C@@H](C)O)C(N)=O` [RFRRLRWKTRKRLWKI], the MIC [12] is reported as 8 µM (≈ 18.4 µg/mL), the MIC [13] is reported as 32 µM (≈ 73.6 µg/mL) and the MIC [14] is reported as 16 µM (≈ 36.8 µg/mL). It also gave an MIC [15] of 16 µM (≈ 36.8 µg/mL).

For `CC[C@H](C)[C@H](NC(=O)[C@H](CCC(N)=O)NC(=O)[C@H](CC(C)C)NC(=O)[C@H](CCC(N)=O)NC(=O)[C@@H](NC(=O)[C@H](CCCN=C(N)N)NC(=O)[C@H](Cc1ccccc1)NC(=O)[C@H](Cc1c[nH]c2ccccc12)NC(=O)[C@@H](N)CCCN=C(N)N)[C@@H](C)CC)C(=O)N[C@@H](CCCN=C(N)N)C(=O)N[C@@H](CCCN=C(N)N)C(=O)N[C@@H](Cc1c[nH]c2ccccc12)C(=O)N[C@@H](CCCN=C(N)N)C(=O)N[C@@H](CC(N)=O)C(=O)N[C@@H](CCCN=C(N)N)C(=O)N[C@@H](CCCN=C(N)N)C(N)=O` [RWFRIQLQIRRWRNRR], the MIC [2] was 16 µM (≈ 37.4 µg/mL) and the MIC [16] was 16 µM (≈ 37.4 µg/mL).

With `CC(C)C[C@H](NC(=O)[C@H](CCCN=C(N)N)NC(=O)[C@H](Cc1c[nH]c2ccccc12)NC(=O)[C@H](CCCN=C(N)N)NC(=O)[C@@H](NC(=O)[C@H](Cc1c[nH]c2ccccc12)NC(=O)[C@H](Cc1c[nH]c2ccccc12)NC(=O)[C@H](CCCN=C(N)N)NC(=O)[C@H](CC(C)C)NC(=O)[C@H](Cc1c[nH]c2ccccc12)NC(=O)[C@@H](N)CCCN=C(N)N)[C@@H](C)O)C(=O)N[C@@H](CCCCN)C(N)=O` [RWLRWWTRWRLK] the MIC [6] was 2 µM (≈ 3.68 µg/mL), the MIC [13] was 4 µM (≈ 7.37 µg/mL) and the MIC [2] was 4 µM (≈ 7.37 µg/mL). The MIC [14] was 2 µM (≈ 3.68 µg/mL), the MIC [15] was 4 µM (≈ 7.37 µg/mL) and the MIC [11] was 4 µM (≈ 7.37 µg/mL).

`CC[C@H](C)[C@H](NC(=O)[C@H](CCCN=C(N)N)NC(=O)[C@H](CCCN=C(N)N)NC(=O)[C@@H]1CCCN1C(=O)[C@@H]1CCCN1C(=O)[C@H](CCCN=C(N)N)NC(=O)[C@@H]1CCCN1C(=O)[C@H](CCCN=C(N)N)NC(=O)[C@@H]1CCCN1C(=O)[C@H](CC(C)C)NC(=O)[C@H](Cc1ccc(O)cc1)NC(=O)[C@@H]1CCCN1C(=O)[C@H](CC(=O)O)NC(=O)[C@H](CCCCN)NC(=O)[C@H](CC(=O)O)NC(=O)[C@@H](N)C(C)C)C(=O)N[C@@H](Cc1ccc(O)cc1)C(=O)N[C@@H](CC(N)=O)C(=O)N[C@@H](CCCN=C(N)N)C(N)=O` [VDKDPYLPRPRPPRRIYNR] showed an MIC [17] of 1.99 µM (≈ 4.8 µg/mL).

`CC[C@H](C)[C@H](NC(=O)[C@H](CCCN=C(N)N)NC(=O)[C@H](CCCN=C(N)N)NC(=O)[C@@H]1CCCN1C(=O)[C@@H]1CCCN1C(=O)[C@H](CCCN=C(N)N)NC(=O)[C@H](CCCN=C(N)N)NC(=O)[C@H](CCCN=C(N)N)NC(=O)[C@@H]1CCCN1C(=O)[C@H](CCCN=C(N)N)NC(=O)[C@H](Cc1ccc(O)cc1)NC(=O)[C@@H]1CCCN1C(=O)[C@H](CCCCN)NC(=O)[C@H](CCCCN)NC(=O)[C@H](CC(=O)O)NC(=O)[C@@H](N)C(C)C)C(=O)N[C@@H](Cc1ccc(O)cc1)C(=O)N[C@@H](CC(N)=O)C(=O)N[C@@H](CCCN=C(N)N)C(N)=O` [VDKKPYRPRRRPPRRIYNR] gave an MIC [17] of 0.634 µM (≈ 1.6 µg/mL).

Compound `CC[C@H](C)[C@H](NC(=O)[C@H](CCCN=C(N)N)NC(=O)[C@H](CCCN=C(N)N)NC(=O)[C@@H]1CCCN1C(=O)[C@@H]1CCCN1C(=O)[C@H](CCCN=C(N)N)NC(=O)[C@@H]1CCCN1C(=O)[C@H](CCCN=C(N)N)NC(=O)[C@@H]1CCCN1C(=O)[C@H](CC(C)C)NC(=O)[C@H](CCCCN)NC(=O)[C@@H]1CCCN1C(=O)[C@@H]1CCCN1C(=O)[C@H](CCCCN)NC(=O)[C@H](CC(=O)O)NC(=O)[C@@H](N)C(C)C)C(=O)N[C@@H](Cc1ccc(O)cc1)C(=O)N[C@@H](CC(N)=O)C(=O)N[C@@H](CCCN=C(N)N)C(N)=O` [VDKPPKLPRPRPPRRIYNR] has an MIC [17] of 2.04 µM (≈ 4.8 µg/mL).

Compound `NC(=O)[C@H](CCCN=C(N)N)NC(=O)[C@H](CCCN=C(N)N)NC(=O)[C@@H]1CCCN1C(=O)[C@H](CCCN=C(N)N)NC(=O)[C@H](CCCN=C(N)N)NC(=O)[C@H](CCCN=C(N)N)NC(=O)[C@H](Cc1c[nH]c2ccccc12)NC(=O)[C@H](CCCN=C(N)N)NC(=O)[C@H](CCCN=C(N)N)NC(=O)[C@H](CCCN=C(N)N)NC(=O)[C@H](CCCN=C(N)N)NC(=O)[C@H](CCCN=C(N)N)NC(=O)[C@H](Cc1c[nH]c2ccccc12)NC(=O)[C@H](CCCN=C(N)N)NC(=O)[C@H](CCCN=C(N)N)NC(=O)[C@H](Cc1ccc(O)cc1)NC(=O)[C@H](CCCN=C(N)N)NC(=O)[C@H](CCCN=C(N)N)NC(=O)[C@H](CCCN=C(N)N)NC(=O)[C@@H](N)Cc1c[nH]c2ccccc12` [WRRRYRRWRRRRRWRRRPRR] has an MIC [6] of 1.56 µM (≈ 4.96 µg/mL), an MIC [2] of 3.13 µM (≈ 9.95 µg/mL) and an MIC [9] of 3.13 µM (≈ 9.95 µg/mL). For the same compound, the MIC [16] was 1.56 µM (≈ 4.96 µg/mL).

For `CC[C@H](C)[C@H](NC(=O)[C@H](CC(C)C)NC(=O)[C@H](CC(=O)O)NC(=O)[C@H](CCC(N)=O)NC(=O)[C@H](CCC(N)=O)NC(=O)[C@H](CC(C)C)NC(=O)[C@H](CCC(=O)O)NC(=O)[C@@H]1CCCN1C(=O)[C@@H](N)Cc1ccc(O)cc1)C(=O)N[C@@H](C)C(=O)N[C@@H](CCCN=C(N)N)C(=O)N[C@@H](CC(C)C)C(=O)N[C@@H](CC(C)C)C(=O)O` [YPELQQDLIARLL], the MIC [1] was 1.97 µM (≈ 3.1 µg/mL), the MIC [2] was 31.8 µM (≈ 50 µg/mL) and the MIC [3] was 4.01 µM (≈ 6.3 µg/mL). For the same compound, the MIC [4] was 15.9 µM (≈ 25 µg/mL).
